Assay results taken from paper PMC5769417, “Single- and Multiple-Dose Trials to Determine the Pharmacokinetics, Safety, Tolerability, and Sex Effect of Oral Ginsenoside Compound K in Healthy Chinese Volunteers” (Frontiers in Pharmacology, 2018).
Where “and” joins values, the source holds several entries; their conditions need not be identical. Equal entries are not always repeated.

Experiment: Single-dose trial, cumulative urine excretion
Type: in vivo, human
Details: fasting, urine 0–48 h
Protocol: Single-dose pharmacokinetics: In the 25 and 50 mg dose groups, serial blood samples were collected at pre-dose (t = 0) and at 0.25, 0.5, 1, 1.5, 2, 2.5, 3, 3.5, 4, 5, 6, 8, 12, 24, 36, and 48 h post-dose. From the 100 to 800 mg dose groups, blood samples were additionally collected at 72 and 96 h post-dose. Plasma was separated from whole blood by refrigerated centrifugation (3,000 rpm, 10 min), within 1 h after sampling, transferred to labeled storage tubes, and stored at −70°C prior to workup and analysis. Urine samples were collected at different time periods: 0–2, 2–4, 4–6, 6–8, 8–10, 10–12, 12–24, and 24–48 h post-dose and the volume was measured immediately after collection from each subject. We preserved 8 ml specimens into 10 ml centrifuge tubes and stored at −70°C for PK assessment.
The processing method of the urine samples was similar to the method used for the plasma samples. For CK, the only difference was in the mobile phase (acetonitrile: 10 mM aqueous ammonium acetate = 50:50, V/V, for plasma samples; acetonitrile: 20 mM aqueous ammonium acetate = 60:40, V/V, for urine samples; acetonitrile, Merck KGaA, Darmstadt, Germany; ammonium acetate, CNW technologies GmbH, Duesseldorf, Germany). As for 20(S)-PPD, neither the IS nor the mobile phase were the same (IS: coumarin for plasma samples and finasteride for urine samples; mobile phase was acetonitrile: 10 mM aqueous ammonium acetate = 50: 50, V/V, for plasma samples, and acetonitrile: 0.1% formic acid aqueous solution = 50: 50, V/V, for urine samples). The calibration curve range for CK was linear from 1.00 to 1002.0 ng·ml^−1 with a correlation coefficient equal to 0.9984, and from 0.15 to 54.30 ng·ml^−1 with a correlation coefficient equal to 0.9978 for 20(S)-PPD. Three levels of QC samples (2.00, 50.10, or 801.60 ng.ml^−1 CK) were prepared in urine for testing accuracy and coefficient of variations (CVs), and the values were 94–103% and 1.06–6.54%, respectively.
Experimental observations provided the plasma CK and 20(S)-PPD concentrations vs. the time data after single-dose administration, including maximum plasma concentration (Cmax) and the time to maximum plasm concentration (Tmax). The area under the curve (AUC) from time zero to the last time point (AUClast) and the AUC extrapolated to infinity (AUCinf) were calculated using the linear trapezoidal rule. The slope (elimination rate constant, K) of the terminal phase of the plasma concentration-time profile was determined, using a weighting factor of 1, by the method of least squares (log-linear regression of at least three data points). The t1/2 was estimated as (ln2)/K. The apparent plasma clearance of the drug after oral administration (CL/F) was expressed as a function of bioavailability (F) and calculated as the dose divided by AUCinf, assuming that the complete systemic bioavailability F = 1. The apparent volume of distribution (V/F) was equal to (CL/F)/K. The mean residence time (MRT) was calculated as the area under the first moments curve (AUMC) divided by AUC. The dose-normalized PK parameters e.g., Cmax/D and AUClast/D, were obtained by dividing each PK result by the administered dose. The cumulative excretion rate was calculated as the amount of unchanged drug in the urine over a time interval divided by the dose and was expressed as thousand points (‰).

## CC(C)=CCC[C@](C)(OC1O[C@H](CO)[C@@H](O)[C@H](O)[C@H]1O)[C@H]1CC[C@]2(C)[C@@H]1[C@H](O)C[C@@H]1[C@@]3(C)CC[C@H](O)C(C)(C)[C@@H]3CC[C@]12C (stereo partly drawn) [CK, 20-O-beta-D-glucopyranosyl-20(S)-protopanaxadiol]
25 mg oral
  Ae, accumulative urine excretion rate: 0.41 ± 0.29 ‰
50 mg oral
  Ae, accumulative urine excretion rate: 0.46 ‰ and 0.46 ± 0.34 ‰
100 mg oral
  Ae, accumulative urine excretion rate: 0.25 ± 0.13 ‰
200 mg oral
  Ae, accumulative urine excretion rate: 0.27 ± 0.15 ‰
400 mg oral
  Ae, accumulative urine excretion rate: 0.19 ± 0.13 ‰
600 mg oral
  Ae, accumulative urine excretion rate: 0.10 ‰ and 0.10 ± 0.08 ‰
800 mg oral
  Ae, accumulative urine excretion rate: 0.10 ‰ and 0.10 ± 0.04 ‰
